Measurements reported in patent US11548925B2, “CACNA1H-derived tumor antigen polypeptide and use thereof” (Genoimmune Therapeutics Co., Ltd., priority 2016, dated 2023).

Tests used:
[1] = test system: H2087-TLISSLMPI (SEQ ID NO: 2) subcutaneous tumor; experiment: DC vaccine infected with recombinant lentivirus containing peptide gene in H2087-[…] tumor model; format: in vivo, NOD/SCID mice; conditions: DC infected with lentivirus carrying peptide gene, 2 injections
Description: The following DNA sequences were synthesized: “[…]” (SEQ ID NO: 8), encoding the wild-type peptide […] (SEQ ID NO: 1); “[…]” (SEQ ID NO: 9), encoding the mutant peptide […] (SEQ ID NO: 2); “[…]” (SEQ ID NO: 10), encoding the SEQ ID NO: 2 […]'s variant peptide […] (SEQ ID NO: 3); “[…]” (SEQ ID NO: 11), encoding the SEQ ID NO: 2 […]'s variant peptide […] (SEQ ID NO: 4); “[…]” (SEQ ID NO: 12), encoding the SEQ ID NO: 2 […]'s variant peptide […] (SEQ ID NO: 5); “[…]” (SEQ ID NO: 13), encoding the SEQ ID NO: 2 […]'s variant peptide […] (SEQ ID NO: 6); and “[…]” (SEQ ID NO: 14), encoding the SEQ ID NO: 2_[…]'s variant peptide […] (SEQ ID NO: 7). The wild-type peptide […] (SEQ ID NO: 1), the mutant peptide […] (SEQ ID NO: 2) and the mutant peptide SEQ ID NO: 2 […]'s variant peptides were constructed into the lentiviral vector pHBLV-Puro, respectively, to name as pHBLV-Puro-[…] (SEQ ID NO: 1), pHBLV-Puro-[…] (SEQ ID NO: 2), pHBLV-Puro-[…] (SEQ ID NO: 3), pHBLV-Puro-[…] (SEQ ID NO: 4), pHBLV-Puro-[…] (SEQ ID NO: 5), pHBLV-Puro-[…] (SEQ ID NO: 6) and pHBLV-Puro-[…] (SEQ ID NO: 7), respectively. The seven lentiviral constructs were co-transfected into 293T cells with helper plasmids pSPAX2 and pMD2G for packaging, and lentiviruses of the wild-type peptide […] (SEQ ID NO: 1), the mutant peptide […] (SEQ ID NO: 2) and the mutant peptide's variant peptides were obtained.
600-900 ml of anticoagulated peripheral blood was collected from healthy volunteers for isolating peripheral blood mononuclear cells (PBMCs) via Ficoll. Cells were collected for use. 2×10^7 PBMCs per 0.5 ml was intraperitoneally injected into each of 300 NOD SCID mice without immune leakage to perform human immune reconstitution in NOD SCID mice. […]
(§1) The human non-small cell lung adenocarcinoma cell line H2087-[…] […] The long diameter a and the short diameter b of the tumor were measured with a vernier caliper every 2-3 days and the size of the tumor was calculated as a*b*b/2. The mice and tumors were weighed and recorded every day. […] The tumor volume and the survival rate of mice were recorded every 2 days. […]

[2] = test system: H2087-TLISSLMPI (SEQ ID NO: 2) subcutaneous tumor; experiment: DC peptide vaccine in H2087-[…] subcutaneous tumor model; format: in vivo, NOD/SCID mice; conditions: DC loaded with peptide, intracutaneous, 2 injections; vs DC loaded with wild-type peptide
Protocol: 600-900 ml of anticoagulated peripheral blood was collected from healthy volunteers for isolating peripheral blood mononuclear cells (PBMCs) via Ficoll. Cells were collected for use. 2×10^7 PBMCs per 0.5 ml was intraperitoneally injected into each of 300 NOD SCID mice without immune leakage to perform human immune reconstitution in NOD SCID mice. After 4 weeks, the mice were selected to be inoculated with the human lung cancer cell line.
as §1, with “line H2087-[…] (SEQ ID NO: 2) as established in Example 7 was cultured in DMEM medium containing 10% fetal bovine serum, 100 U/mL penicillin and 100 U/mL streptomycin in an incubator at 37° C., 5% CO2.” for “line”
Tumor-bearing mice were randomly divided into 7 groups: DC loaded with wild-type peptide group, DC loaded with the mutant peptide […] […] After injection, vital signs of the mice were observed, and the vertical and horizontal dimensions of tumors were measured with a vernier caliper every two days. Tumor volume was calculated as follows: tumor volume=½×length×width^2. […]

Sequence: TLISSLMPI [tumor antigen peptide from CACNA1H mutation, position 1428 arginine to methionine]
- Tumor-suppressing effect [1]: significant tumor-suppressing effects
- Survival period of mice ([1]; vs wild-type peptide group): prolonged the survival period of mice
- Survival period of mice [2]: significantly prolonged survival period of mice
- Tumor growth [2]: slowed down tumor growth in mice
